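Interpolation was linear, between the two tested concentrations surrounding the appropriate level; five concentrations were tested over 48 hours in 96-well plates. At the TGI there is no net growth.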
Columns and labels:
Test in all cases: growth of human tumour cells (NCI), 48 h
[1] = tested on: RPMI-8226 leukemia
[2] = tested on: HT29 colon
[3] = tested on: NCI-H522 lung
[4] = tested on: 786-0 renal
[5] = tested on: SK-MEL-28 melanoma
[6] = tested on: EKVX NSCLC
[7] = tested on: A549 NSCLC
[8] = tested on: SW-620 colon
[9] = tested on: K-562 leukemia
[10] = tested on: U251 CNS
[11] = tested on: HCC-2998 colon
[12] = tested on: SF-268 CNS
[13] = tested on: M19-MEL melanoma
[14] = tested on: ACHN renal
[15] = tested on: HCT-15 colon
[16] = tested on: SK-OV-3 ovarian
[17] = tested on: CCRF-CEM leukemia
[18] = tested on: LXFL 529 NSCLC
[19] = tested on: OVCAR-8 ovarian
[20] = tested on: SR leukemia
[21] = tested on: UO-31 renal
[22] = tested on: OVCAR-3 ovarian
[23] = tested on: SF-295 CNS
[24] = tested on: UACC-62 melanoma
[25] = tested on: IGROV1 ovarian
[26] = tested on: MOLT-4 leukemia
[27] = tested on: SNB-75 CNS
[28] = tested on: M14 melanoma
[29] = tested on: KM20L2 colon
[30] = tested on: SNB-19 CNS
[31] = tested on: HOP-62 NSCLC
[32] = tested on: RXF-631 renal
[33] = tested on: HL-60(TB) leukemia
[34] = tested on: COLO 205 colon
[35] = tested on: DMS 114 small cell lung
[36] = tested on: NCI-H226 lung
[37] = tested on: KM12 colon
[38] = tested on: TK-10 renal
[39] = tested on: SK-MEL-5 melanoma
[40] = tested on: DLD-1 colon
[41] = tested on: HCT-116 colon
[42] = tested on: DMS 273 small cell lung
[43] = tested on: SF-539 CNS
[44] = tested on: CAKI-1 renal
[45] = tested on: LOX IMVI melanoma
[46] = tested on: UACC-257 melanoma
[47] = tested on: HOP-92 NSCLC

SMILES | TGI [1] [µM] | TGI [2] [µM] | TGI [3] [µM] | TGI [4] [µM] | TGI [5] [µM] | TGI [6] [µM] | TGI [7] [µM] | TGI [8] [µM] | TGI [9] [µM] | TGI [12] [µM] | TGI [13] [µM] | TGI [14] [µM] | TGI [16] [µM] | TGI [17] [µM] | TGI [18] [µM] | TGI [20] [µM] | TGI [22] [µM] | TGI [23] [µM] | TGI [24] [µM] | TGI [25] [µM] | also measured
CC1=C(C)C(=O)C2=C(OCCCO2)C1=O | 36.1 | 46.3 | 33.1 | 33.3 | > 100 | 31 | > 100 | 31.2 | 54 | 33.2 | 33.3 | 32.4 | > 100 | 8.11 | 31.9 | 44.9 | 32 | 70.9 | 32.7 | 33.3 | TGI [10]: > 100 µM; TGI [11]: > 100 µM; TGI [15]: > 100 µM; TGI [19]: 32.9 µM; TGI [21]: 30.1 µM; TGI [26]: 5.33 µM; TGI [27]: 51.7 µM; TGI [28]: 30.7 µM; TGI [29]: > 100 µM; TGI [30]: > 100 µM; TGI [31]: > 100 µM; TGI [32]: 31.5 µM; TGI [33]: 19 µM; TGI [34]: > 100 µM; TGI [35]: 33.5 µM
N#CC(c1ccc(Cl)cc1)c1c(O)nc2ccc(=N)cc-2n1O (configuration not stated) | > 100 | > 100 | > 100 | > 100 | > 100 | > 100 | > 100 | > 100 | > 100 | > 100 | > 100 | > 100 | > 100 | > 100 | > 100 | > 100 | > 100 | > 100 | > 100 | > 100 | TGI [36]: > 100 µM; TGI [37]: > 100 µM; TGI [38]: > 100 µM; TGI [39]: > 100 µM; TGI [40]: > 100 µM; TGI [41]: > 100 µM; TGI [42]: > 100 µM; TGI [43]: > 100 µM; TGI [44]: > 100 µM; TGI [45]: > 100 µM; TGI [46]: > 100 µM; TGI [26]: > 100 µM; TGI [27]: > 100 µM; TGI [28]: > 100 µM; TGI [29]: > 100 µM; TGI [47]: > 100 µM; TGI [33]: > 100 µM
